Paper PMC9034232 (RSC Advances, 2021)

What was measured:
in vitro = settings: human
[1] = test system: influenza A/H1N1/WSN/33 virus; experiment: Anti-IAV activity assay; format: cell-based; settings: 24 h, read-out: IC50 (anti-IAV activity)

Compound `NC(=O)c1ncn([C@@H]2O[C@H](CO)[C@@H](O)[C@H]2O)n1` [Ribavirin, reference compound] has a CC50 (in vitro) of over 100 µM and an IC50 [1] of 21.7 µM.

`Cc1cc(=O)c2c(o1)C[C@H](O)C[C@H]2O` [Compound 9, (5R,7R)-5,7-dihydroxy-2-methyl-5,6,7,8-tetrahydro-4H-chromen-4-one] gave a CC50 (in vitro) of over 100 µM and an IC50 [1] of 16.1 µM.

In the case of `Cc1cc(=O)c2c(o1)C[C@@H](O)C[C@H]2O` [Compound 11, (5R,7S)-5,7-dihydroxy-2-methyl-5,6,7,8-tetrahydro-4H-chromen-4-one], the CC50 (in vitro) is reported as over 100 µM and the IC50 [1] is reported as 9 µM.
